Inconclusive results and toxic doses are left out. Rule for the calls: active = survival T/C of 150% or more; inactive = T/C below 125% in these data.
Tested on: CD2F1 mice, L1210 leukemia ip, survival T/C
Assay: NCI In Vivo Anticancer Drug Screen. Data for tumor model L1210 Leukemia (intraperitoneal) in CD2F1 (CDF1) mice
Details: higher = longer survival
Summary of the method: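 Compound-dosed mice with transplantable tumor versus matched vehicle controls; endpoint ratio T/C reported.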

[1] = endpoint: mean survival time, dose: 100.0 mg/kg/injection, schedule: Q04DX002 (ip), vehicle: saline with Tween-80
[2] = endpoint: mean survival time, dose: 200.0 mg/kg/injection, schedule: Q04DX002 (ip), vehicle: saline with Tween-80
[3] = endpoint: mean survival time, dose: 400.0 mg/kg/injection, schedule: Q04DX002 (ip), vehicle: saline with Tween-80
[4] = endpoint: mean survival time, dose: 50.0 mg/kg/injection, schedule: Q01DX009 (ip), vehicle: Klucel (hydroxypropylcellulose) (HPC)
[5] = endpoint: mean survival time, dose: 100.0 mg/kg/injection, schedule: Q01DX009 (ip), vehicle: Klucel (hydroxypropylcellulose) (HPC)
[6] = endpoint: mean survival time, dose: 200.0 mg/kg/injection, schedule: Q01DX009 (ip), vehicle: Klucel (hydroxypropylcellulose) (HPC)

Measured: T/C

NC(=S)N/N=C/c1ccc(I)cn1
inactive: [1] 93 % of control | [2] 93 % of control | [3] 93 % of control

Cc1ccccc1S(=O)(=O)N/N=C/c1ccsc1
inactive: endpoint: median survival time, dose: 50.0 mg/kg/injection, schedule: Q04DX002 (ip), vehicle: saline with Tween-80 90 % of control | endpoint: median survival time, dose: 100.0 mg/kg/injection, schedule: Q04DX002 (ip), vehicle: saline with Tween-80 90 % of control | endpoint: median survival time, dose: 200.0 mg/kg/injection, schedule: Q04DX002 (ip), vehicle: saline with Tween-80 100 % of control | endpoint: median survival time, dose: 400.0 mg/kg/injection, schedule: Q04DX002 (ip), vehicle: saline with Tween-80 90 % of control

O=C(OC(=O)C(F)(F)C(F)(F)F)C(F)(F)C(F)(F)F
inactive: endpoint: mean survival time, dose: 100.0 mg/kg/injection, schedule: Q04DX002 (ip), vehicle: saline 92 % of control | endpoint: mean survival time, dose: 200.0 mg/kg/injection, schedule: Q04DX002 (ip), vehicle: saline 103 % of control | endpoint: mean survival time, dose: 400.0 mg/kg/injection, schedule: Q04DX002 (ip), vehicle: saline 100 % of control

O=C(COc1ccc(Cl)c(Cl)c1)NCc1cccc([N+](=O)[O-])c1
inactive: endpoint: mean survival time, dose: 75.0 mg/kg/injection, schedule: Q01DX001 (ip), vehicle: saline with Tween-80 93 % of control | endpoint: mean survival time, dose: 150.0 mg/kg/injection, schedule: Q01DX001 (ip), vehicle: saline with Tween-80 88 % of control | endpoint: mean survival time, dose: 300.0 mg/kg/injection, schedule: Q01DX001 (ip), vehicle: saline with Tween-80 86 % of control

CC(=O)OC1(C)CC(C)(C)N=[N+]1[O-] (configuration not stated)
inactive: endpoint: mean survival time, dose: 25.0 mg/kg/injection, schedule: Q01DX009 (ip), vehicle: Klucel (hydroxypropylcellulose) (HPC) 96 % of control | [4] 101 % of control | [5] 101 % of control | [6] 105 % of control

Cc1ccccc1NC(=O)Oc1cccc(OC(=O)c2ccccc2)c1
inactive: [1] 103 % of control | [2] 103 % of control | [3] 91 % of control

NC(CSC(c1ccccc1)(c1ccccc1)c1ccc(CBr)cc1)C(=O)O (configuration not stated)
active: endpoint: mean survival time, dose: 400.0 mg/kg/injection, schedule: Q01DX009 (ip), vehicle: other 164 % of control
inactive: endpoint: mean survival time, dose: 12.5 mg/kg/injection, schedule: Q01DX009 (ip), vehicle: other 107 % of control | endpoint: mean survival time, dose: 25.0 mg/kg/injection, schedule: Q01DX009 (ip), vehicle: other 107 % of control | endpoint: mean survival time, dose: 50.0 mg/kg/injection, schedule: Q01DX009 (ip), vehicle: other 109 % of control | endpoint: mean survival time, dose: 100.0 mg/kg/injection, schedule: Q01DX009 (ip), vehicle: other 115 % of control

CCOC(=O)c1ccc(N2C(=O)C=CC2=O)cc1
inactive: endpoint: mean survival time, dose: 12.5 mg/kg/injection, schedule: Q01DX009 (ip), vehicle: saline 97 % of control

Cc1cn(C(C=O)OC(C=O)CO)c(=O)[nH]c1=O (configuration not stated)
inactive: endpoint: mean survival time, dose: 10.0 mg/kg/injection, schedule: Q01DX005 (ip), vehicle: water 107 % of control | endpoint: mean survival time, dose: 10.0 mg/kg/injection, schedule: Q01DX009 (ip), vehicle: water 104 % of control | endpoint: mean survival time, dose: 12.5 mg/kg/injection, schedule: Q01DX005 (ip), vehicle: water 104 % of control | endpoint: mean survival time, dose: 20.0 mg/kg/injection, schedule: Q01DX005 (ip), vehicle: water 102 % of control | endpoint: mean survival time, dose: 20.0 mg/kg/injection, schedule: Q01DX009 (ip), vehicle: water 107 % of control | endpoint: mean survival time, dose: 25.0 mg/kg/injection, schedule: Q01DX005 (ip), vehicle: water 98 % of control | endpoint: mean survival time, dose: 40.0 mg/kg/injection, schedule: Q01DX005 (ip), vehicle: water 112 % of control | endpoint: mean survival time, dose: 40.0 mg/kg/injection, schedule: Q01DX009 (ip), vehicle: water 124 % of control | endpoint: mean survival time, dose: 50.0 mg/kg/injection, schedule: Q01DX005 (ip), vehicle: water 104 % of control | endpoint: mean survival time, dose: 80.0 mg/kg/injection, schedule: Q01DX009 (ip), vehicle: water 120 % of control | endpoint: mean survival time, dose: 100.0 mg/kg/injection, schedule: Q01DX005 (ip), vehicle: water 104 % of control | endpoint: mean survival time, dose: 160.0 mg/kg/injection, schedule: Q01DX009 (ip), vehicle: water 102 % of control | endpoint: mean survival time, dose: 200.0 mg/kg/injection, schedule: Q01DX005 (ip), vehicle: water 109 % of control

CC(C)C(C)/C=C\C(C)C1CCC2C3=CC=C4CC(OC(=O)c5ccccc5)CCC4(C)C3=CCC21C (configuration not stated)
inactive: [4] 93 % of control | [5] 110 % of control | [6] 96 % of control

From PubChem BioAssay AID256 (DTP/NCI, 2004)
